# pIC50: −log10 of the molar value.
# System: tumor cell
# Assay: Cytotoxicity assay (MTS)
# Assay type: cell-based
# Details: 72 h; incubation for three days; read-out: IC50, tumor cell growth inhibition (MTS)
# Experimental: The efficacy of a test compound in inhibiting tumor cell growth was analyzed using a MTS assay. The MTS assay is a calorimetric method for the determination of viable cells in proliferation by using a tetrazolium compound (3-(4,5-dimethylthiazol-2-yl)-5-(3-[…])-2-(4-sulfophenyl)-2H-tetrazolium, inner salt; MTS) and an electron-coupling agent (phenazine methosulfate; PMS). The MTS reagent is converted by dehydrogenase enzymes in metabolically active cells into a formazan that is soluble in a tissue culture medium.
# In this assay, tumor cell suspensions (30 μl/well) were seeded into 384-well flat-bottomed tissue culture plates at an appropriate density overnight. A fresh medium (3 μl/well) containing varying concentrations of a test compound or vehicle was added to the culture followed by incubation for three days. At the end of the incubation, all plates were processed simultaneously as follows: The culture medium was aspirated, a MTS cell proliferation assay (Promega) solution (30 μl/well) was added, and the plates were incubated at 37° C. for about 2 hours. Absorbance (a parameter proportional to the cell mass) was measured at 490 nm using a Multiskan (Thermo Electron Corporation, Waltham, Mass.). Inhibition effects were expressed as corrected T/C values for each test compound according to the following equation:
# T/C=(T−Blank)/(C−Blank)×100(%),
# where T is the mean absorbance of the treated cells, C is the mean absorbance of the controls, and Blank is the mean absorbance of the cell free well.
row,Structure (SMILES),pIC50
1,Cc1ccc(C(=O)N(CCN)C(c2nc3c(oc4ccc(F)cc43)c(=O)n2Cc2cccc(F)c2)C(C)C)cc1 (stereo not shown) [Compound 79],> 4.52
2,Cc1ccc(C(=O)N(CCCN)C(c2nc3c(Br)c4ccccc4cc3c(=O)n2Cc2ccccc2)C(C)C)cc1 (stereo not shown) [Compound 4],> 4.52
3,Cc1ccc(C(=O)N(CCN)C(c2nc3c(oc4ccccc43)c(=O)n2Cc2ccc(Br)s2)C(C)C)cc1 (stereo not shown) [Compound 164],> 4.52
4,Cc1ccc(C(=O)N(CCCN)C(c2nc3nc4ccccc4nc3c(=O)n2Cc2ccccc2)C(C)C)cc1 (stereo not shown) [Compound 10],> 4.52
5,Cc1ccc(C(=O)N(CCCN)C(c2nc3c(oc4ccc(Cl)cc43)c(=O)n2Cc2ccc(Br)s2)C(C)C)cc1 (stereo not shown) [Compound 41],> 4.52
6,Cc1ccc(C(=O)N(CCCN)C(c2nc3n(c(=O)c2Cc2ccccc2)Cc2ccccc2-3)C(C)C)cc1F (stereo not shown) [Compound 152],> 4.52
7,Cc1ccc(C(=O)N(CCCN)C(c2nc3c(oc4ccc(Cl)cc43)c(=O)n2Cc2cccs2)C(C)C)cc1 (stereo not shown) [Compound 43],> 4.52
8,CC(C)C(c1nc2c(oc3ccc(F)cc32)c(=O)n1Cc1ccccc1)N(CCN)C(=O)c1ccc(Br)cc1 (stereo not shown) [Compound 65],> 4.52
9,Cc1ccc(C(=O)N(CCCN)C(c2nc3c(oc4ccc(F)cc43)c(=O)n2Cc2ccc(Br)s2)C(C)C)cc1 (stereo not shown) [Compound 70],> 4.52
10,Cc1ccc(C(=O)N(CCN)C(c2nc3c(oc4ccc(F)cc43)c(=O)n2Cc2ccc(C#N)s2)C(C)C)cc1F (stereo not shown) [Compound 174],> 4.52
11,Cc1ccc(C(=O)N(CCN)[C@@H](c2nc3c(oc4ccc(F)cc43)c(=O)n2Cc2cccc(F)c2)C(C)C)cc1 [Compound 187],> 4.52
12,Cc1ccc(C(=O)N(CCCN)C(c2nc3c(oc4ccc(F)cc43)c(=O)n2Cc2ccc(Br)o2)C(C)C)cc1 (stereo not shown) [Compound 82],> 4.52
13,Cc1ccc(C(=O)N(CCN)[C@@H](c2nc3c(oc4ccc(F)cc43)c(=O)n2Cc2ccc(C(F)(F)F)o2)C(C)C)cc1 [Compound 213],> 4.52
14,Cc1ccc(C(=O)N(CCCN)C(c2nc3c(oc4ccc(C)cc43)c(=O)n2Cc2ccccc2)C(C)C)cc1 (stereo not shown) [Compound 40],> 4.52
15,Cc1ccc(C(=O)N(CCN)C(c2nc3c(oc4ccc(F)cc43)c(=O)n2Cc2cc(C#N)cs2)C(C)C)cc1 (stereo not shown) [Compound 112],> 4.52
16,CCC(c1nc2c(oc3ccc(Cl)cc32)c(=O)n1Cc1ccccc1)N(CCN)S(=O)(=O)c1ccc(C)cc1 (stereo not shown) [Compound 34],> 4.52
17,Cc1ccc(C(=O)N(CCCN)C(c2nc3c(oc4ccccc43)c(=O)n2Cc2ccccc2O)C(C)C)cc1 (stereo not shown) [Compound 29],> 4.52
18,Cc1ccc(C(=O)N(CCN)C(c2nc3c(oc4ccc(Cl)cc43)c(=O)n2Cc2ccccc2)C(C)C)cn1 (stereo not shown) [Compound 56],> 4.52
19,Cc1ccc(C(=O)N(CCN)[C@@H](c2nc3c(oc4ccc(F)cc43)c(=O)n2Cc2ccc(Cl)o2)C(C)C)cc1 [Compound 189],> 4.52
20,Cc1ccc(C(=O)N(CCN)C(c2nc3c(oc4ccccc43)c(=O)n2Cc2ccc(Cl)o2)C(C)C)cc1 (stereo not shown) [Compound 162],> 4.52
21,CC(C)[C@H](c1nc2c(oc3ccc(F)cc32)c(=O)n1Cc1ccccc1)N(CCN)C(=O)c1ccc(C(F)(F)F)cc1 [Compound 207],> 4.52

row,Structure (SMILES),pIC50
1,Cc1ccc(C(=O)N(CCCN)C(c2nc3c([nH]c4ccccc43)c(=O)n2Cc2ccccc2)C(C)C)cc1 (stereo not shown) [Compound 158],> 4.52
2,Cc1ccc(C(=O)N(CCN)[C@@H](c2nc3c(oc4ccc(F)cc43)c(=O)n2Cc2ccc(I)s2)C(C)C)cc1 [Compound 219],> 4.52
3,Cc1ccc(C(=O)N(CCN)[C@@H](c2nc3c(oc4ccc(F)cc43)c(=O)n2Cc2cccs2)C(C)C)cc1 [Compound 199],> 4.52
4,CCCC(c1nc2c(oc3ccccc32)c(=O)n1Cc1ccccc1)N(CCCN)C(=O)c1ccc(C)cc1 (stereo not shown) [Compound 50],> 4.52
5,Cc1ccc(C(=O)N(CCN)[C@@H](c2nc3c(oc4ccc(F)cc43)c(=O)n2Cc2cc(Br)co2)C(C)C)cc1F [Compound 218],> 4.52
6,CC(C)C(c1nc2c(oc3ccc(F)cc32)c(=O)n1Cc1ccc(C#N)s1)N(CCN)C(=O)c1ccc(Cl)cc1 (stereo not shown) [Compound 172],> 4.52
7,Cc1ccc(C(=O)N(CCN)C(c2nc3c(oc4ccc(Br)cc43)c(=O)n2Cc2ccccc2)C(C)C)cc1 (stereo not shown) [Compound 37],> 4.52
8,CCC(c1nc2c(oc3ccc(Cl)cc32)c(=O)n1Cc1ccccc1)N(CCN)C(=O)c1ccc(C)cc1 (stereo not shown) [Compound 32],> 4.52
9,CC[C@@H](C)[C@H](c1nc2c(oc3ccc(F)cc32)c(=O)n1Cc1ccc(Br)o1)N(CCN)C(=O)c1ccc(C)cc1 [Compound 220],> 4.52
10,Cc1ccc(C(=O)N(CCN)C(c2nc3c(oc4ccc(Cl)cc43)c(=O)n2Cc2ccc(Br)o2)C(C)C)cc1 (stereo not shown) [Compound 103],> 4.52
11,Cc1ccc(C(=O)N(CCCN)C(c2nc3c(oc4ccc(F)cc43)c(=O)n2Cc2cccs2)C(C)C)cc1 (stereo not shown) [Compound 74],> 4.52
12,CC(C)C(c1nc2c(sc3ccc(F)cc32)c(=O)n1Cc1ccccc1)N(CCCN)C(=O)c1ccc(Cl)cc1 (stereo not shown) [Compound 139],> 4.52
13,Cc1ccc(C(=O)N(CCN)C(c2nc3c(oc4ccc(F)cc43)c(=O)n2Cc2ccc(CO)cc2)C(C)C)cc1 (stereo not shown) [Compound 130],> 4.52
14,CCC(c1nc2c(oc3ccccc32)c(=O)n1Cc1ccccc1)N(CCCCN(C)C)C(=O)c1ccc(Br)cc1 (stereo not shown) [Compound 24],> 4.52
15,Cc1ccc(C(=O)N(CCN)C(c2nc3c(oc4ccc(F)cc43)c(=O)n2Cc2ccc(C(=O)NC(C)C)o2)C(C)C)cc1 (stereo not shown) [Compound 119],> 4.52
16,CC(C)C(c1nc2c(sc3ccc(F)cc32)c(=O)n1Cc1ccccc1)N(CCCN)C(=O)c1ccc(Br)cc1 (stereo not shown) [Compound 140],> 4.52
17,Cc1ccc(C(=O)N(CCN)C(c2nc3c(oc4cc(F)ccc43)c(=O)n2Cc2cc(C)cs2)C(C)C)cc1 (stereo not shown) [Compound 109],> 4.52
18,Cc1ccc(C(=O)N(CCN)C(c2nc3c(oc4ccc(Cl)cc43)c(=O)n2Cc2ccc(C(F)(F)F)o2)C(C)C)cc1 (stereo not shown) [Compound 101],> 4.52
19,Cc1ccc(C(=O)N(CCCN)C(c2nc3c(sc4ccc(F)cc43)c(=O)n2Cc2ccccc2)C(C)C)cc1F (stereo not shown) [Compound 137],> 4.52
20,Cc1ccc(C(=O)N(CCN)C(c2nc3c(oc4cc(F)ccc43)c(=O)n2Cc2ccc(Cl)s2)C(C)C)cc1 (stereo not shown) [Compound 110],> 4.52
21,CC(C)C(c1nc2c(oc3ccc(F)cc32)c(=O)n1Cc1ccc(Cl)o1)N(CCN)C(=O)c1ccc(Cl)cc1 (stereo not shown) [Compound 169],> 4.52

row,Structure (SMILES),pIC50
1,CNC(=O)c1ccc(Cn2c(C(C(C)C)N(CCN)C(=O)c3ccc(C)cc3)nc3c(oc4ccc(F)cc43)c2=O)o1 (stereo not shown) [Compound 118],> 4.52
2,CCN(CC)C(=O)c1ccc(Cn2c(C(C(C)C)N(CCN)C(=O)c3ccc(C)cc3)nc3c(oc4ccc(F)cc43)c2=O)s1 (stereo not shown) [Compound 117],> 4.52
3,Cc1ccc(C(=O)N(CCCN)C(c2nc3c(sc4ccccc43)c(=O)n2Cc2cccs2)C(C)C)cc1 (stereo not shown) [Compound 148],> 4.52
4,CCC(c1nc2c(oc3ccccc32)c(=O)n1Cc1ccccc1)N(CCN(C)C)C(=O)c1ccc(Br)cc1 (stereo not shown) [Compound 23],> 4.52
5,Cc1ccc(C(=O)N(CCCN)C(c2nc3c(oc4ccccc43)c(=O)n2Cc2ccccc2F)C(C)C)cc1 (stereo not shown) [Compound 27],> 4.52
6,Cc1ccc(C(=O)N(CCCN)C(c2nc3c(oc4ccccc43)c(=O)n2Cc2ccccc2)C(C)C)cc1 (stereo not shown) [Compound 13],> 4.52
7,Cc1ccc(C(=O)N(CCN)C(c2nc3c(oc4ccc(F)cc43)c(=O)n2Cc2cccc(C)c2)C(C)C)cc1 (stereo not shown) [Compound 104],> 4.52
8,CC(C)C(c1nc2c(sc3ccccc32)c(=O)n1Cc1ccc(Br)s1)N(CCCN)C(=O)c1ccc(Br)cc1 (stereo not shown) [Compound 145],> 4.52
9,Cc1ccc(C(=O)N(CCN)[C@@H](c2nc3c(oc4ccc(F)cc43)c(=O)n2Cc2ccoc2)C(C)C)cc1 [Compound 196],> 4.52
10,Cc1ccc(C(=O)N(NCCN)C(c2nc3c(sc4ccccc43)c(=O)n2Cc2ccc(Br)s2)C(C)C)cc1 (stereo not shown) [Compound 149],> 4.52
11,CCC(c1nc2c(oc3ccccc32)c(=O)n1Cc1ccccc1)N(CCCN)C(=O)c1ccc(C)cc1 (stereo not shown) [Compound 17],> 4.52
12,Cc1ccc(C(=O)N(CCCN)C(c2nc3c(oc4ccc(Cl)cc43)c(=O)n2Cc2cc(C)cs2)C(C)C)cc1 (stereo not shown) [Compound 95],> 4.52
13,Cc1ccc(C(=O)N(CCCN)C(c2nc3c(oc4ccc(C(F)(F)F)cc43)c(=O)n2Cc2ccccc2)C(C)C)cc1 (stereo not shown) [Compound 30],> 4.52
14,Cc1ccc(C(=O)N(CCN)C(c2nc3c(oc4ccc(F)cc43)c(=O)n2Cc2ccc(C(=O)N(C)C)s2)C(C)C)cc1 (stereo not shown) [Compound 115],> 4.52
15,Cc1csc(Cn2c(C(C(C)C)N(CCN)C(=O)c3ccc(Br)cc3)nc3c(oc4ccc(F)cc43)c2=O)c1 (stereo not shown) [Compound 167],> 4.52
16,Cc1ccc(C(=O)N(CCC2(N)CCC2)C(c2nc3n(c(=O)c2Cc2ccccc2)Cc2ccccc2-3)C(C)C)cc1 (stereo not shown) [Compound 153],> 4.52
17,CC(C)C(c1nc2n(c(=O)c1Cc1ccccc1)Cc1ccccc1-2)N(CCCN)C(=O)c1ccc(Cl)cc1 (stereo not shown) [Compound 151],> 4.52
18,CCC(c1nc2nc3cc(Cl)ccc3cc2c(=O)n1Cc1ccccc1)N(CCCN)C(=O)c1ccc(C)cc1 (stereo not shown) [Compound 12],> 4.52
19,Cc1ccc(C(=O)N(CCN)[C@@H](c2nc3c(oc4ccc(F)cc43)c(=O)n2Cc2ccc(Cl)o2)C(C)C)cc1F [Compound 190],> 4.52
